In the supplement of paper PMC11208160:

Assay: recombinant barcode read abundance after kanamycin selection (control-corrected) (log10(CPM+1)); higher = more efficient recombination; sequences stand for … in AGTGCAGAGAAAATCGGCCAGTTTTCTCTGCCTGCAGTCCGCATGCCGT…AGATTTATGCAGCGGACTGCCTTTCTCCCAAAGTGATAAACCGGACAGTATCATGGACCGGTTTTCCCGGTAATCCGTATTTGCAAGGTTGGTTTCACT; site = the 11-nt target
Method in brief: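 Recombination efficiency comes from barcode counts at recombinant junctions, converted to counts per million, averaged and corrected against the control. Values appear as log10(CPM+1). They were obtained from a pooled E. coli screen in which each oligo paired a target with an IS621 bridge RNA target-binding loop, and cells were plated in duplicate on chloramphenicol/ampicillin LB agar or on chloramphenicol/ampicillin/kanamycin with 0.1 mM IPTG.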
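Also: IS621 recombinase and bridge RNA in Escherichia coli cells.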

Sequence | recombinant barcode read abundance (log10)
TTCTGTGCTTGGGTTCTAACCTGTTGCCT (site TTCTGAGCTAG) | 0.0672
TTCTGTGCTTGGGTTCTAACCTGTTGCCT (site TTCTGCGCTAG) | 0.0701
TTCTGTGCTTGGGTTCTAACCTGTTGCCT (site TTCTGGGCTAG) | 0.0555
TTCTGTGCTTGGGTTCTAACCTGTTGCCT (site TTCTGTGCTAG) | 0.0428
TTGAAATCTTGGGTTCTAACCTGTTGCCT (site TTGAAATCTAG) | 0.131
TTGAAATCTTGGGTTCTAACCTGTTGCCT (site TTGACATCTAG) | 0.0533
TTGAAATCTTGGGTTCTAACCTGTTGCCT (site TTGAGATCTAG) | 0.0296
TTGAAATCTTGGGTTCTAACCTGTTGCCT (site TTGATATCTAG) | 0.0563
TTGAACTCTTGGGTTCTAACCTGTTGCCT (site TTGAACTCTAG) | 1.18
TTGAACTCTTGGGTTCTAACCTGTTGCCT (site TTGAGCTCTAG) | 0.0203
TTGAATCCTTGGGTTCTAACCTGTTGCCA (site TTGAATCCTTG) | 0.71
TTGAATCCTTGGGTTCTAACCTGTTGCCA (site TTGAGTCCTTA) | 0.0534
TTGACATCTTGGGTTCTAACCTGTTGCCT (site TTGAAATCTAG) | 0.179
TTGACATCTTGGGTTCTAACCTGTTGCCT (site TTGACATCTAG) | 0.216
TTGACATCTTGGGTTCTAACCTGTTGCCT (site TTGAGATCTAG) | 0.0391
TTGACATCTTGGGTTCTAACCTGTTGCCT (site TTGATATCTAG) | 0.147
TTGACGACTTGGGTTCTAACCTGTTGCCG (site CACCGAGCTTA) | 0.149
TTGACGACTTGGGTTCTAACCTGTTGCCG (site TTGACGACTCG) | 0.452
TTGAGATCTTGGGTTCTAACCTGTTGCCT (site TTGAAATCTAG) | 0.0577
TTGAGATCTTGGGTTCTAACCTGTTGCCT (site TTGACATCTAG) | 0
TTGAGATCTTGGGTTCTAACCTGTTGCCT (site TTGAGATCTAG) | 0.0355
TTGAGATCTTGGGTTCTAACCTGTTGCCT (site TTGATATCTAG) | 0.264

Sequence | recombinant barcode read abundance (log10)
TTGAGCTCTTGGGTTCTAACCTGTTGCCT (site TTGAACTCTAG) | 0.0507
TTGAGCTCTTGGGTTCTAACCTGTTGCCT (site TTGAGCTCTAG) | 0.952
TTGAGGACTTGGGTTCTAACCTGTTGCCA (site TTGAGGACTAC) | 1.14
TTGAGGACTTGGGTTCTAACCTGTTGCCA (site TTGAGGACTTG) | 0.943
TTGAGTACTTGGGTTCTAACCTGTTGCCG (site TTGAGTACTCG) | 0.577
TTGAGTACTTGGGTTCTAACCTGTTGCCG (site TTGATTACTTG) | 0.0556
TTGAGTCCTTGGGTTCTAACCTGTTGCTA (site TTGAATCCTTG) | 0.037
TTGAGTCCTTGGGTTCTAACCTGTTGCTA (site TTGAGTCCTTA) | 0.488
TTGCATCCTTGGGTTCTAACCTGTTGCAG (site CGTTGGTCTTC) | 0.0529
TTGCATCCTTGGGTTCTAACCTGTTGCAG (site TTGCATCCTCT) | 0.802
TTGCCAACTTGGGTTCTAACCTGTTGCCT (site TTGCAAACTAG) | 0.146
TTGCCAACTTGGGTTCTAACCTGTTGCCT (site TTGCCAACTAG) | 0.332
TTGCCAACTTGGGTTCTAACCTGTTGCCT (site TTGCGAACTAG) | 0.0564
TTGCCAACTTGGGTTCTAACCTGTTGCCT (site TTGCTAACTAG) | 0.00831
TTGCCGACTTGGGTTCTAACCTGTTGCCT (site TTGCCGACTAG) | 0.716
TTGCCGACTTGGGTTCTAACCTGTTGCCT (site TTGCCTACTAG) | 0
TTGCCTACTTGGGTTCTAACCTGTTGCCT (site TTGCCGACTAG) | 0.0577
TTGCCTACTTGGGTTCTAACCTGTTGCCT (site TTGCCTACTAG) | 0.339
TTGCGAGCTTGGGTTCTAACCTGTTGCAT (site TTGCGAGCTAT) | 1.82
TTGCGAGCTTGGGTTCTAACCTGTTGCAT (site TTGCGTGCTAA) | 0.0906
TTGGATCCTTGGGTTCTAACCTGTTGCTT (site TTGGATCCTAA) | 1.87
TTGGATCCTTGGGTTCTAACCTGTTGCTT (site TTGGATCCTAG) | 1.85

Sequence | recombinant barcode read abundance (log10)
TTGGGCACTTGGGTTCTAACCTGTTGCCT (site TTGGACACTAG) | 0.196
TTGGGCACTTGGGTTCTAACCTGTTGCCT (site TTGGCCACTAG) | 0.176
TTGGGCACTTGGGTTCTAACCTGTTGCCT (site TTGGGCACTAG) | 0.0687
TTGGGCACTTGGGTTCTAACCTGTTGCCT (site TTGGTCACTAG) | 0.103
TTGGGTGCTTGGGTTCTAACCTGTTGCAT (site TAGGCTGCTAT) | 0.16
TTGGGTGCTTGGGTTCTAACCTGTTGCAT (site TTGGGTGCTAT) | 1.3
TTGGGTTCTTGGGTTCTAACCTGTTGCCT (site TTGGGTGCTCG) | 0.0625
TTGGGTTCTTGGGTTCTAACCTGTTGCCT (site TTGGGTTCTAG) | 0.767
TTGTACACTTGGGTTCTAACCTGTTGCTC (site CAACTAGCTAT) | 0.043
TTGTACACTTGGGTTCTAACCTGTTGCTC (site TTGTACACTGA) | 1.06
TTGTACTCTTGGGTTCTAACCTGTTGCTT (site TTGTACTCTAA) | 0.453
TTGTACTCTTGGGTTCTAACCTGTTGCTT (site TTGTGTTCTAA) | 0.0725
TTGTATTCTTGGGTTCTAACCTGTTGCCT (site TTGAATTCTAA) | 0.0409
TTGTATTCTTGGGTTCTAACCTGTTGCCT (site TTGTATTCTAG) | 0.679
TTGTCGACTTGGGTTCTAACCTGTTGCCA (site TTGACGACTTG) | 0.105
TTGTCGACTTGGGTTCTAACCTGTTGCCA (site TTGCCGACTTG) | 0.0807
TTGTCGACTTGGGTTCTAACCTGTTGCCA (site TTGGCGACTTG) | 0.00572
TTGTCGACTTGGGTTCTAACCTGTTGCCA (site TTGTCGACTTG) | 0.087
TTGTGAGCTTGGGTTCTAACCTGTTGCCA (site ACAGTTACTAT) | 0.0715
TTGTGAGCTTGGGTTCTAACCTGTTGCCA (site TTGTGAGCTTG) | 1.1
